Test results as given in BindingDB's records for doi:10.1021/jo015665d (Merck Research Laboratories, 2001).
pIC50: −log10 of the molar value.

biological target: Polymerase acidic protein (Influenza A virus (strain A/Puerto Rico/8/1934 H1N1), UniProt P03433); assay: Inhibition of cap 1 ALMV primed Influenza transcriptase

Row | Structure (SMILES) | pIC50
1 | COCOn1c(=O)c(=Cc2ccccc2)[nH]c(=CC(C)C)c1=O | < 3.70
2 | COCOn1c(=O)c(=Cc2ccc(F)cc2)[nH]c(=CC(C)C)c1=O | < 3.70
3 | COCOn1c(=O)c(=Cc2cccc(F)c2)[nH]c(=CC(C)C)c1=O | < 3.70
4 | COCOn1c(=O)c(=Cc2ccccc2F)[nH]c(=CC(C)C)c1=O | < 3.70
5 | COCOn1c(=O)c(=Cc2ccccc2)[nH]c(=Cc2ccc(F)cc2)c1=O | < 3.70
6 | COCOn1c(=O)c(=Cc2ccc(OC)cc2)[nH]c(=CC(C)C)c1=O | < 3.70
7 | COCOn1c(=O)c(=Cc2ccccc2)[nH]c(=Cc2ccc(OC)cc2)c1=O | < 3.70
8 | CC(C)C=c1[nH]c(=Cc2ccc(F)cc2)c(=O)[nH]c1=O [3-(4-fluorobenzylidene)-5-isobutylpyrazine-2,6(1H,3H)-dione] | < 3.70
9 | COCOn1c(=O)c(=CC(C)C)[nH]c(=CC(C)C)c1=O [(3Z)-5-isobutyl-1-(methoxymethoxy)-3-(2-methylpropylidene)pyrazine-2,6(1H,3H)-dione] | < 3.70
